Measurements published in patent publication US20250223306A1, “TEAD INHIBITORS AND METHODS OF USE” (Sporos BioDiscovery, Inc., priority 2022, published 2025).

Tests used:
[1] = tested on: BHY cells; experiment: BHY proliferation and cell viability assay (CTG); assay type: cell-based; conditions: BHY cell line
Method: BHY cells were trypsinised, counted and plated at the specified cell density in 200 μl of growth media in 96 well flat bottom tissue culture treated plates. The plated cells were incubated overnight at 37° C., 5% CO2 before being treated with compounds in triplicate for each assay point. 50 μl of the serially diluted compound was added to each well giving a final DMSO concentration of 0.5% per well and a total volume of 250 μl per well. The treated cells were incubated for 144 hours (6 days) at 37° C., 5% CO2. Following compound treatment, the remaining viable cells were detected using the Promega CellTiter-Glo 2.0 assay as follows: 150 μl of media was removed from each of the wells to be assayed and 100 μl of room temperature CellTiter-Glo 2.0 reagent was added. The plate was placed on an orbital shaker at 500 rpm at room temperature for 2 minutes, and then incubated without shaking for a further 10 minutes at room temperature. 150 μl of cell lysate was removed from each well and dispensed into a single well of a white opaque 96 well plate. Luminescence at 545 nm was read using a BMG CLARIOstar plate reader. The luminescent signal was directly proportional to number of viable cells, the percent of viable cells relative to the DMSO control was then calculated for each assay point. Percent viability relative to DMSO control was plotted against compound concentration and a curve fitted with non-linear regression in GraphPad
Prism software. EC50 and IC50 values are calculated using GraphPad Prism software as follows: For EC50 values, a non-constrained four-parameter logistic curve fit was used (Sigmoidal, 4PL, X is concentration). For Absolute IC50 values the baseline was constrained to Y=0 (Absolute IC50, X is concentration). Area Under the Curve (AUC): Prism computes area-under-the-curve by the trapezoidal method. The analysis sees a fitted curve as simply a series of connected XY points. Prism simply computes the area under the “curve” defined by connecting the points by straight lines. The units of the AUC are the units of the Y axis times units of the X axis.

[2] = tested on: LOU-NH91 cells; experiment: LOU-NH91 proliferation and cell viability assay (CTG); assay type: cell-based; conditions: LOU-NH91 cell line, 216 hours
Method: LOU-NH91 cells were trypsinised, counted and plated at the specified cell density in 200 μl of growth media in 96 well flat bottom tissue culture treated plates. The plated cells were incubated overnight at 37° C., 5% CO2 before being treated with compounds in triplicate for each assay point. 50 μl of the serially diluted compound was added to each well giving a final DMSO concentration of 0.5% per well and a total volume of 250 μl per well. The treated cells were incubated for 216 hours (9 days) at 37° C., 5% CO2. Following compound treatment, the remaining viable cells were detected using the Promega CellTiter-Glo 2.0 assay as follows: 150 μl of media was removed from each of the wells to be assayed and 100 μl of room temperature CellTiter-Glo 2.0 reagent was added. The plate was placed on an orbital shaker at 500 rpm at room temperature for 2 minutes, and then incubated without shaking for a further 10 minutes at room temperature. 150 μl of cell lysate was removed from each well and dispensed into a single well of a white opaque 96 well plate. Luminescence at 545 nm was read using a BMG CLARIOstar plate reader. The luminescent signal was directly proportional to number of viable cells, the percent of viable cells relative to the DMSO control was then calculated for each assay point. Percent viability relative to DMSO control was plotted against compound concentration and a curve fitted with non-linear regression in GraphPad Prism software. EC50 and IC50 values were calculated using GraphPad Prism software as follows: For EC50 values a non-constrained four-parameter logistic curve fit was used (Sigmoidal, 4PL, X is concentration). For Absolute IC50 values the baseline was constrained to Y=0 (Absolute IC50, X is concentration). Area Under the Curve (AUC): Prism computes area-under-the-curve by the trapezoidal method. The analysis sees a fitted curve as simply a series of connected XY points. Prism simply computes the area under the “curve” defined by connecting the points by straight lines. The units of the AUC are the units of the Y axis times units of the X axis.

[3] = biological target: TEAD2 (Homo sapiens, UniProt Q15562); experiment: TEAD thermal shift assay (TSA); assay type: binding
Sequence of TEAD2 (Q15562 whole entry): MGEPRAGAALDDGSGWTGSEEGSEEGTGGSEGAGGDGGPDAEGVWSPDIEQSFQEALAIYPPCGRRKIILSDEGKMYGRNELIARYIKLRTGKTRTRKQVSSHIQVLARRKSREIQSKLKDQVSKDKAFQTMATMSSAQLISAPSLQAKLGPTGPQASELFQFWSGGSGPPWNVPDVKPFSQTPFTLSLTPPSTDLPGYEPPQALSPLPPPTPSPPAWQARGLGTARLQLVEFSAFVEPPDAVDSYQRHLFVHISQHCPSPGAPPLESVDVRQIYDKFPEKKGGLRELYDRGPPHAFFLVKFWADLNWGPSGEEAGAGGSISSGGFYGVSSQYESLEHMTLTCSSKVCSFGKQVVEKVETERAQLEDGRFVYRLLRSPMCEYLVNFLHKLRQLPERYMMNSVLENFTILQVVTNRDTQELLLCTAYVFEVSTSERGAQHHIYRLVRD
Description: (§1) Thermal shift assay (TSA) is a biophysical method to evaluate stability of proteins with change in temperature. The assay measures thermal denaturation temperature in varying conditions such as different drug concentration. For this example, fluorogenic dye was used that bind to unfolded proteins. SYPRO Orange binds non-specifically to hydrophobic surfaces, and water strongly quenches its fluorescence. When the protein unfolds, the exposed hydrophobic surfaces bind the dye, resulting in an increase in fluorescence by excluding water. Detergent micelles also bind the dye and increase background noise dramatically. Binding of small molecules to proteins leads to a stabilization against to thermal denaturation with the degree of thermal stabilization proportional to the strength of binding.
(§2) The study described in this example investigated the change in melting temperature (ΔTm) of TEAD isoforms 1˜4 when treated with TEAD inhibitors. Compound 1-1-a known strong TEAD1 and weak TEAD2 inhibitor; as well as Compound 1-4-a pan-TEAD inhibitor were used as controls.
(§3) Tris-HCL was dissolved in 5 mL of Cell culture grade water and allowed to dissolve completely. The pH was adjusted to 8 using NaOH. Additional assay buffer components were added in the order listed above. The buffer was mixed slowly.
(§4) Assay buffer was prepared according to the procedures outlined above and dispensed into test wells. Spyro orange was added to a concentration of 5× in the assay buffer, followed by test compound stock solution which was added to a concentration of 10 μM or 30 μM in the assay buffer.
(§5) The melt cycle was performed in Bio-RAD PCR instrument from 20-95° C. with ramp rate of 1° C./min.

[4] = biological target: TEAD3 (Homo sapiens, UniProt Q99594); experiment: TEAD thermal shift assay (TSA); assay type: binding
Sequence of TEAD3 (Q99594 whole entry): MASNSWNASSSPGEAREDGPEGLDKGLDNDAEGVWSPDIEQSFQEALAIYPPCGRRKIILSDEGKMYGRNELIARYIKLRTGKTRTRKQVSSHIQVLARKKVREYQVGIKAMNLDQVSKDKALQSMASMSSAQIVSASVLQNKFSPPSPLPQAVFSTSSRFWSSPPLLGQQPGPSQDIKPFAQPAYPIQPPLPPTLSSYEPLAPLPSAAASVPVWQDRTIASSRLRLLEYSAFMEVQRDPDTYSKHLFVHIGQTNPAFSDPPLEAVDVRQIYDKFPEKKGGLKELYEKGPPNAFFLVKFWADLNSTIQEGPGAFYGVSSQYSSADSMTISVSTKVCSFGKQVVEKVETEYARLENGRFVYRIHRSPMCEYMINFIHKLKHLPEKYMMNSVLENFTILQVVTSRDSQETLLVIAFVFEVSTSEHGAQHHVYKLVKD
Description: as §1, §2, §3, §4, §5

[5] = biological target: TEAD1 (Homo sapiens, UniProt P28347); experiment: TEAD thermal shift assay (TSA); assay type: binding
Sequence of TEAD1 (P28347 whole entry): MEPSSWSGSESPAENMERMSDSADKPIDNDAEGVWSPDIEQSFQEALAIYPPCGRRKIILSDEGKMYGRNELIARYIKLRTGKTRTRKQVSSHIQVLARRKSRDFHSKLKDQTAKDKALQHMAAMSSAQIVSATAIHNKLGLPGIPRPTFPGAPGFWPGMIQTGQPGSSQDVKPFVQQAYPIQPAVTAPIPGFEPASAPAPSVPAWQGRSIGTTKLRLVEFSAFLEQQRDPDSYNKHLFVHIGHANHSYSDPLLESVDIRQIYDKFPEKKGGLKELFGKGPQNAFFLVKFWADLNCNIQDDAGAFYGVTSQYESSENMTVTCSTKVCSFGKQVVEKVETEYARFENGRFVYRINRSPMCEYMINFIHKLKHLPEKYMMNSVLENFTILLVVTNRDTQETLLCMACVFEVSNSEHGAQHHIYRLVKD
Description: as §1, §2, §3, §4, §5

[6] = biological target: TEAD4 (Homo sapiens, UniProt Q15561); experiment: TEAD thermal shift assay (TSA); assay type: binding
Sequence of TEAD4 (Q15561 whole entry): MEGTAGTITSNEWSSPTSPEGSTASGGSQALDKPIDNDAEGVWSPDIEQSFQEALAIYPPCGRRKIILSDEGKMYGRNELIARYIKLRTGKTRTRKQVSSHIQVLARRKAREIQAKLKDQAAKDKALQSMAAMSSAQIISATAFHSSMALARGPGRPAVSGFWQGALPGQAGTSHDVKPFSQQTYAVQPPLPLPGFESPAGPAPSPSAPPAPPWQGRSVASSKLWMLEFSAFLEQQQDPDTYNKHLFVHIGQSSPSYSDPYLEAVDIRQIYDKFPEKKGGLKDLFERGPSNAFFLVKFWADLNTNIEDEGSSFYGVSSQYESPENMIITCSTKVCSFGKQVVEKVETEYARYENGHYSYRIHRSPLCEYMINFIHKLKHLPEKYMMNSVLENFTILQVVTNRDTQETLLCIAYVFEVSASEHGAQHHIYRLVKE
Description: as §1, §2, §3, §4, §5

[7] = tested on: NCI-H226 xenograft; experiment: Inhibition of mouse xenograft NCI-H226 tumors; assay type: in vivo, BALB/c nude mice; conditions: Day 27; 3 mg/kg, p.o., QD
Description: This study evaluated the in vivo therapeutic efficacy of TEAD inhibitors in the treatment of the subcutaneous lung cancer NCI-H226 xenograft model in female BALB/c nude mice.
• ANOVA Analysis of variance • BW Body weight • BWL Body weight loss • FFPE Formalin fixed paraffin embedded • IACUC Institutional animal care and use committee • MTV Mean tumor volume • N/A Not available or not applicable • p.o. Oral (ly) • QD Once a day • REG REG=[(T0−Ti)/T0]×100%; • Ti as the mean tumor volume of the treatment group on the measurement day; • T0 as the mean tumor volume of the treatment group on Day 0. • ROA Route of administration • RT Room temperature • RTV Relative tumor volume • SD Standard deviation • SEM Standard error of mean • SOC Standard of care used in clinical setting for a specific disease • TBD To be determined • T/C The Ti/Ci value (%): T/C %=Ti/Ci×100; • Ti and Ci are the mean tumor volumes of the treatment and control groups, respectively, on a given day. • TGI Tumor growth inhibition; TGI %=(1−Ti/Ci)×100; • Ti and Ci are the mean tumor volumes of the treatment and control groups, respectively, on a given day. • TV Tumor volume • PK/PD Pharmacokinetics/Pharmacodynamics • ΔInhibition Mean % ΔInhibition=((Ci−C0)−(Ti−T0))/(Ci−C0)*100% • Ti and Ci are the mean tumor volumes of the treatment and control groups, respectively, on a given day. T0 and C0 as the mean tumor volumes of the treatment and vehicle groups on Day 0.
• Species Mus musculus • Strain Balb/c nude • Supplier GemPharmatech Co., Ltd • Gender Female • No. of Animals Ordered 68 (45 plus 23 spare) • No. of Animals Assigned 45 • to Study • Average Age of Animals 6-8 weeks • at Study Initiation
The NCI-H226 cells (CL-00364) cancer cells were maintained in vitro with RPMI1640 medium supplemented with 10% fetal bovine serum at 37° C. in an atmosphere of 5% CO2 in the air. The cells in exponential growth phase were harvested and quantitated by cell counter before tumor inoculation.
Each mouse was inoculated subcutaneously in the right front flank region with NCI-H226 tumor cells (1×10^7) in 0.2 ml of PBS mixed with Matrigel (1:1) for tumor development.
The randomization was performed when the mean tumor size reached 138.81 mm^3. 45 mice were enrolled in the study. All animals were randomly allocated to 9 study groups, 5 mice in each group. Randomization was performed based on “Matched distribution” method/“Stratified” method (StudyDirector™ software, version 3.1.399.19)/randomized block design. The date of randomization was denoted as day 0.
The treatment was initiated on the same day of randomization (day 0) per study design.
After tumor cells inoculation, the animals were checked daily for morbidity and mortality. During routine monitoring, the animals were checked for any effects of tumor growth and treatments on behavior such as mobility, food and water consumption, body weight gain/loss (Body weights were measured twice per week after randomization), eye/hair matting and any other abnormalities. Mortality and observed clinical signs were recorded for individual animals in detail.
Tumor volumes were measured twice per week after randomization in two dimensions using a caliper, and the volume was expressed in mm^3 using the formula: “V=(L×W×W)/2, where V is tumor volume, L is tumor length (the longest tumor dimension) and W is tumor width (the longest tumor dimension perpendicular to L). Dosing as well as tumor and body weight measurements were conducted in a Laminar Flow Cabinet.
To compare tumor volumes of different groups at a pre-specified day, Bartlett's test was first used to check the assumption of homogeneity of variance across all groups. When the p-value of Bartlett's test was >=0.05, one-way ANOVA was performed to test overall equality of means across all groups. […]

[8] = tested on: SDM103T2 cells; experiment: SDM103T2 proliferation and cell viability assay (CTG); assay type: cell-based; conditions: SDM103T2 cell line, 144 hours
Method: SDM103T2 cells were trypsinised, counted and plated at the specified cell density in 200 μl of growth media in 96 well flat bottom tissue culture treated plates. The plated cells were incubated overnight at 37° C., 5% CO2 before being treated with compounds in triplicate for each assay point. 50 μl of the serially diluted compound was added to each well giving a final DMSO concentration of 0.5% per well and a total volume of 250 μl per well. The treated cells were incubated for 144 hours (6 days) at 37° C., 5% CO2. Following compound treatment the remaining viable cells were detected using the Promega CellTiter-Glo 2.0 assay as follows: 150 μl of media was removed from each of the wells to be assayed and 100 μl of room temperature CellTiter-Glo 2.0 reagent was added. The plate was placed on an orbital shaker at 500 rpm at room temperature for 2 minutes, and then incubated without shaking for a further 10 minutes at room temperature. 150 μl of cell lysate was removed from each well and dispensed into a single well of a white opaque 96 well plate. Luminescence at 545 nm was read using a BMG CLARIOstar plate reader. The luminescent signal was directly proportional to number of viable cells, the percent of viable cells relative to the DMSO control was then calculated for each assay point. Percent viability relative to DMSO control was plotted against compound concentration and a curve fitted with non-linear regression in GraphPad Prism software. EC50 and IC50 values were calculated using GraphPad Prism software as follows: For EC50 values a non-constrained four-parameter logistic curve fit was used (Sigmoidal, 4PL, X is concentration). For Absolute IC50 values the baseline was constrained to Y=0 (Absolute IC50, X is concentration). Area Under the Curve (AUC): Prism computes area-under-the-curve by the trapezoidal method. The analysis sees a fitted curve as simply a series of connected XY points. Prism simply computes the area under the “curve” defined by connecting the points by straight lines. The units of the AUC are the units of the Y axis times units of the X axis.

[9] = ratio of protein to compound 1:1
[10] = ratio of protein to compound 1:3

| SMILES | EC50 ([1]; 144 h) [µM] | EC50 [2] [µM] | EC50 ([1]; 144 hours) [µM] | TEAD2 ΔTm [3, 9] [°C] | TEAD3 ΔTm [4, 9] [°C] | TEAD1 ΔTm [5, 9] [°C] | TEAD1 ΔTm [5, 10] [°C] | TEAD4 ΔTm [6, 9] [°C] | TEAD4 ΔTm [6, 10] [°C] | other results |
| --- | --- | --- | --- | --- | --- | --- | --- | --- | --- | --- |
| COC[C@H](CO)NC(=O)c1cnc2c(C3=CCC(C(F)(F)F)CC3)cccc2c1 (single isomer, unassigned) [Compound 103] | < 0.2 | < 0.2 |  |  |  |  |  |  |  |  |
| COC[C@H](CO)NC(=O)c1cnc2c(C3=CCC(C(F)(F)F)CC3)cccc2c1 (single isomer, unassigned) [Compound 104] |  | < 0.2 | < 0.2 |  |  |  |  |  |  |  |
| C[C@H](CO)NC(=O)c1cnc2c(C3=CCC(C(F)(F)F)CC3)cccc2c1 (single isomer, unassigned) [Compound 82] |  | < 0.2 | 0.2 to 1 |  |  |  |  |  |  |  |
| CNS(=O)(=O)c1ccc(Nc2ccc(C(F)(F)F)cc2)c(-c2cn(C)cn2)c1 [Compound 1-1, reference compound] |  |  |  | 1 | 0 | 2 | 8 | 0 | 1 | thermal shift / binding across TEAD isoforms, in words ([5]; summary of Table 14 over TEAD1-4): pronounced thermal shift only for TEAD1; T/C [7]: 12.51%; TGI [7]: 87.49%; Tumor Volume (mean ± SEM) [7]: 66.85 ± 12.17 mm^3; EC50 [8]: < 0.2 µM |
| C[C@H](CO)NC(=O)c1cnc2c(C3=CCC(C(F)(F)F)CC3)cccc2c1 (single isomer, unassigned) [Compound 81] | < 0.2 | < 0.2 |  | 2 | 4 | 9 | 10 | 5 | 7 | TEAD2 ΔTm [3, 10]: 3 °C; TEAD3 ΔTm [4, 10]: 5 °C |
